{"source": "ChEMBL document CHEMBL1138512", "about": "“A class of 2,4-bisanilinopyrimidine Aurora A inhibitors with unusually high selectivity against Aurora B” (J Med Chem, 2009)", "key": {"[1]": {"target": "Serine/threonine-protein kinase Nek2 (Homo sapiens) (UniProt P51955)", "experiment": "Inhibition of NEK2 at 1 uM"}, "[2]": {"target": "Ribosomal protein S6 kinase alpha-1 (Homo sapiens) (UniProt Q15418)", "experiment": "Inhibition of RSK1 at 1 uM"}, "[3]": {"target": "Ribosomal protein S6 kinase beta-1 (Homo sapiens) (UniProt P23443)", "experiment": "Inhibition of p70S6K at 1 uM"}, "[4]": {"target": "Serine/threonine-protein kinase MRCK alpha (Homo sapiens) (UniProt Q5VT25)", "experiment": "Inhibition of MRCKalpha at 1 uM"}, "[5]": {"target": "Serine/threonine-protein kinase B-raf (Homo sapiens) (UniProt P15056)", "experiment": "Inhibition of BRAF at 1 uM"}, "[6]": {"target": "Cytoplasmic tyrosine-protein kinase BMX (Homo sapiens) (UniProt P51813)", "experiment": "Inhibition of BMX at 1 uM"}, "[7]": {"target": "5'-AMP-activated protein kinase catalytic subunit alpha-1 (Homo sapiens) (UniProt Q13131)", "experiment": "Inhibition of AMPK A1/B1/G1 at 1 uM"}, "[8]": {"target": "Mitogen-activated protein kinase kinase kinase kinase 2 (Homo sapiens) (UniProt Q12851)", "sequence (Q12851 whole entry)": "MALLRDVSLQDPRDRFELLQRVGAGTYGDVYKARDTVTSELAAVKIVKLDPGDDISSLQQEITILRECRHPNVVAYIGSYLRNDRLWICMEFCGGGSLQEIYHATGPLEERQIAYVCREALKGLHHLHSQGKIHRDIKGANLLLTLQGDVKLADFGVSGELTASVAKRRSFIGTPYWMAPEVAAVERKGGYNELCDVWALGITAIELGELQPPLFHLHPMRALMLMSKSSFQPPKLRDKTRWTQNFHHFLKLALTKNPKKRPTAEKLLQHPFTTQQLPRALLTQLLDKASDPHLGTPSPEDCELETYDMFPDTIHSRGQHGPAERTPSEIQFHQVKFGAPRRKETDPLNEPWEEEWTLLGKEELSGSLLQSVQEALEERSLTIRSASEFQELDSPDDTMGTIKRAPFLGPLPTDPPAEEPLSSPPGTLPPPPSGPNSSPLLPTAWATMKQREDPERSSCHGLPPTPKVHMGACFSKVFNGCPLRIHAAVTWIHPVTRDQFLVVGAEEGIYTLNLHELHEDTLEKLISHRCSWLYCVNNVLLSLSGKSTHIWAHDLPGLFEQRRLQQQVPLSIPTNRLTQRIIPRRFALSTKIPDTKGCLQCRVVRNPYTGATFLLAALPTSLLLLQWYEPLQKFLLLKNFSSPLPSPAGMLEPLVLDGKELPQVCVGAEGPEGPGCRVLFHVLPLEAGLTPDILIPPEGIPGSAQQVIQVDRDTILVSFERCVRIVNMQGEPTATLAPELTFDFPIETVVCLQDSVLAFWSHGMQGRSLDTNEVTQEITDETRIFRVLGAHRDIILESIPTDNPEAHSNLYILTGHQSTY", "experiment": "Inhibition of GCK at 1 uM"}, "Aurora kinase B": {"target": "Aurora kinase B (Homo sapiens, UniProt Q96GD4)", "sequence (Q96GD4 whole entry)": "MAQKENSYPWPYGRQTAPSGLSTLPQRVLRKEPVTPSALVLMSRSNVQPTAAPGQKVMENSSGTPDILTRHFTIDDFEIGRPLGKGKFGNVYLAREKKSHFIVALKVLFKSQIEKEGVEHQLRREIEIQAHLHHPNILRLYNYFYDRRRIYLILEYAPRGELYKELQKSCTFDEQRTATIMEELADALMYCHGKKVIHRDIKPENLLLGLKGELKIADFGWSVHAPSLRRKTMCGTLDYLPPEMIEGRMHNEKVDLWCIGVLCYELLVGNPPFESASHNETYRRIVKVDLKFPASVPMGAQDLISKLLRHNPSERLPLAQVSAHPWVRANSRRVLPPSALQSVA", "experiment": "Inhibition of Aurora B in human HCT116 cells assessed as complete loss of phospho-histone H3 staining by immunofluorescence assay"}, "[9]": {"target": "Mitogen-activated protein kinase 14 (Homo sapiens) (UniProt Q16539)", "sequence (Q16539 whole entry)": "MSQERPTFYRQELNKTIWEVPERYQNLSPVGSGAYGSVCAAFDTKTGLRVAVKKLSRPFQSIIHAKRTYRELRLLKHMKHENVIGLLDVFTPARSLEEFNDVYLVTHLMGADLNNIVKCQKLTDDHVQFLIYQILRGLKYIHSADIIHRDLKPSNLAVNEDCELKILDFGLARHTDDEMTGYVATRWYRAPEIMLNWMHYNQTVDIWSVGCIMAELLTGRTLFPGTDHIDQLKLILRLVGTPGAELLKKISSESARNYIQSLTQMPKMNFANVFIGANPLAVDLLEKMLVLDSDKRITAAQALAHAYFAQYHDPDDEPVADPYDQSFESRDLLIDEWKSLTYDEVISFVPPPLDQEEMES", "experiment": "Inhibition of P38alpha at 1 uM"}, "[10]": {"target": "Protein kinase C alpha type (Homo sapiens) (UniProt P17252)", "experiment": "Inhibition of PKCalpha at 1 uM"}, "[11]": {"target": "Casein kinase I isoform delta (Homo sapiens) (UniProt P48730)", "experiment": "Inhibition of CK1delta at 1 uM"}, "[12]": {"target": "Receptor-type tyrosine-protein kinase FLT3 (Homo sapiens) (UniProt P36888)", "experiment": "Inhibition of FLT3 at 1 uM"}, "[13]": {"target": "Calcium/calmodulin-dependent protein kinase type 1D (Homo sapiens) (UniProt Q8IU85)", "experiment": "Inhibition of CaMK1delta at 1 uM"}, "[14]": {"target": "Cyclin-dependent kinase 1/cyclin B1 (Homo sapiens) (UniProt P06493+P14635)", "experiment": "Inhibition of CDK1/cyclin B at 1 uM"}, "[15]": {"target": "Dual specificity protein kinase CLK1 (Homo sapiens) (UniProt P49759)", "experiment": "Inhibition of CLK1 at 1 uM"}, "[16]": {"target": "Cyclin-dependent kinase 5/CDK5 activator 1 (Homo sapiens) (UniProt Q00535+Q15078)", "experiment": "Inhibition of CDK5/p25 at 1 uM", "type": "protein-complex assay"}, "[17]": {"target": "Serine/threonine-protein kinase PAK 3 (Homo sapiens) (UniProt O75914)", "experiment": "Inhibition of PAK3 at 1 uM"}, "[18]": {"target": "Dual specificity mitogen-activated protein kinase kinase 1 (Homo sapiens) (UniProt Q02750)", "sequence (Q02750 whole entry)": "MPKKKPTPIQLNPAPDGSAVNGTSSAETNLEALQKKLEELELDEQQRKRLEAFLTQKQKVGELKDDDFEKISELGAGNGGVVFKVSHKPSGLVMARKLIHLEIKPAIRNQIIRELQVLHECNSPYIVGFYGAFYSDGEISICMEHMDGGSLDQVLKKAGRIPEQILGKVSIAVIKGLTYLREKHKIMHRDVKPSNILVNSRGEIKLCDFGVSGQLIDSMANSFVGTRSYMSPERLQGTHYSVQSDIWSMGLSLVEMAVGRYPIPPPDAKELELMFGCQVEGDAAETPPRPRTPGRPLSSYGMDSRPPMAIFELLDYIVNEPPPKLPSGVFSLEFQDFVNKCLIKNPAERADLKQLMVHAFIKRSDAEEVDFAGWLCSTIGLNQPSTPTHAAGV", "experiment": "Inhibition of MEK1 at 1 uM"}, "[19]": {"target": "Eukaryotic elongation factor 2 kinase (Homo sapiens) (UniProt O00418)", "experiment": "Inhibition of EEF2K at 1 uM"}, "[20]": {"target": "Serine/threonine-protein kinase Nek1 (Homo sapiens) (UniProt Q96PY6)", "sequence (Q96PY6 whole entry)": "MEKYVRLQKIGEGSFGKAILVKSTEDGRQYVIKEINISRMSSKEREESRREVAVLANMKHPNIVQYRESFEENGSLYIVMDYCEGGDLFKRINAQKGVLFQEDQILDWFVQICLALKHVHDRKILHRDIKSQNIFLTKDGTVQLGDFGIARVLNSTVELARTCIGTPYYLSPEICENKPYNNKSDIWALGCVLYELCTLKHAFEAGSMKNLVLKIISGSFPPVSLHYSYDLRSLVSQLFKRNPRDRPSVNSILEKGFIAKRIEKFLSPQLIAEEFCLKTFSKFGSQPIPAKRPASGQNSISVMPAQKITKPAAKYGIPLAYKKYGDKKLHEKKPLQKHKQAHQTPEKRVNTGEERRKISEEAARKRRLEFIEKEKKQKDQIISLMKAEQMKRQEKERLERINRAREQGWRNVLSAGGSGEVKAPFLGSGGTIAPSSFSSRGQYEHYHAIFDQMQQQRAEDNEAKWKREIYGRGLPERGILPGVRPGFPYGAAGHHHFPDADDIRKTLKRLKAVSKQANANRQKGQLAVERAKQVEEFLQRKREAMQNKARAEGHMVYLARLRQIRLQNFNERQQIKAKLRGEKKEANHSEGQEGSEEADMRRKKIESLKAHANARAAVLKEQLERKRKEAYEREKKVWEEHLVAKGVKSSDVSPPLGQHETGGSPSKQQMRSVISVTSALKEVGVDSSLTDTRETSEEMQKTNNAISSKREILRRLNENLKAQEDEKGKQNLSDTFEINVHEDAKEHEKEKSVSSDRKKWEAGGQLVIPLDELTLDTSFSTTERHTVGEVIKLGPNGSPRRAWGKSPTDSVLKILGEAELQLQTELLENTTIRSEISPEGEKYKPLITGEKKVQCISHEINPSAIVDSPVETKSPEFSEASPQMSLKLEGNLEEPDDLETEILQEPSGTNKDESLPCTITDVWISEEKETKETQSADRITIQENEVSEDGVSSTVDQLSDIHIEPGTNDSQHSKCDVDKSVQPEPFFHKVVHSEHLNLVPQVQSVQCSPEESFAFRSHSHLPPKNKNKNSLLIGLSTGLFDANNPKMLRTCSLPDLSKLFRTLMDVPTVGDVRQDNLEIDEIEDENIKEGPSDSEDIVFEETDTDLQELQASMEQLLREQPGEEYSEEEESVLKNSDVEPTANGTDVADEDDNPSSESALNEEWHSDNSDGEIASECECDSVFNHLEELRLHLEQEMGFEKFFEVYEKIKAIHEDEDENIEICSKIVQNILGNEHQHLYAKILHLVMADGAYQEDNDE", "experiment": "Inhibition of NEK1 at 1 uM"}, "[21]": {"target": "Platelet-derived growth factor receptor alpha (Homo sapiens) (UniProt P16234)", "sequence (P16234 whole entry)": "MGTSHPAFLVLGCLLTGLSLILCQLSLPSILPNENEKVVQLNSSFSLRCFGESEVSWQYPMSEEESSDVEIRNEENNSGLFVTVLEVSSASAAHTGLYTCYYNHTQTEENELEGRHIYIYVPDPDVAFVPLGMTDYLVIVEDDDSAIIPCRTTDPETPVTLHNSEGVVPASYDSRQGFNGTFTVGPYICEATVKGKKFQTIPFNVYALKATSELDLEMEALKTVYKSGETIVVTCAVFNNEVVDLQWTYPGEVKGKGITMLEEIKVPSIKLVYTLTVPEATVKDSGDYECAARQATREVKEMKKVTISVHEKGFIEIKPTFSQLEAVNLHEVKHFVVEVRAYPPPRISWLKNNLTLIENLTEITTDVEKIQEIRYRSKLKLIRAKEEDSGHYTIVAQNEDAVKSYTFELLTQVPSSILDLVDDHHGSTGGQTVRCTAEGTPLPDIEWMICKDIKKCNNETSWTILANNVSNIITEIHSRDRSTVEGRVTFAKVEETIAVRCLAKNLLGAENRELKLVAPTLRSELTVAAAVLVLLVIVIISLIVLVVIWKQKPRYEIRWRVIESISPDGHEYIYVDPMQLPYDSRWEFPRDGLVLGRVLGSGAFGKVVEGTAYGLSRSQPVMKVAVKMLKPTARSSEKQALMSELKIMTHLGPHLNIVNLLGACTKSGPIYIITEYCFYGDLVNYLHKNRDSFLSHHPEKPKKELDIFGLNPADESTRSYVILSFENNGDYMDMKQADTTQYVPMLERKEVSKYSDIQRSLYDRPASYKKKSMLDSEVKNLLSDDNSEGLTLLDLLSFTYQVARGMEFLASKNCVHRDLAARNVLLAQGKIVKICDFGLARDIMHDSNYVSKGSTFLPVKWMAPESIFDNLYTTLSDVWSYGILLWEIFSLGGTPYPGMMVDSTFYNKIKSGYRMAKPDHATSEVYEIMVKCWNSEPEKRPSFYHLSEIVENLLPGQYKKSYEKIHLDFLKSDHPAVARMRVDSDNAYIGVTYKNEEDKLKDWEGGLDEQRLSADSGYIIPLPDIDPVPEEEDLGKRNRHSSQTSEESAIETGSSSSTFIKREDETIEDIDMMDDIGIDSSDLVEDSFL", "experiment": "Inhibition of PDGFRA at 1 uM"}, "[22]": {"target": "Serine/threonine-protein kinase pim-1 (Homo sapiens) (UniProt P11309)", "experiment": "Inhibition of PIM1 at 1 uM"}, "[23]": {"target": "Macrophage colony-stimulating factor 1 receptor (Homo sapiens) (UniProt P07333)", "experiment": "Inhibition of FMS at 1 uM"}, "[24]": {"target": "Serine/threonine-protein kinase PLK1 (Homo sapiens) (UniProt P53350)", "sequence (P53350 whole entry)": "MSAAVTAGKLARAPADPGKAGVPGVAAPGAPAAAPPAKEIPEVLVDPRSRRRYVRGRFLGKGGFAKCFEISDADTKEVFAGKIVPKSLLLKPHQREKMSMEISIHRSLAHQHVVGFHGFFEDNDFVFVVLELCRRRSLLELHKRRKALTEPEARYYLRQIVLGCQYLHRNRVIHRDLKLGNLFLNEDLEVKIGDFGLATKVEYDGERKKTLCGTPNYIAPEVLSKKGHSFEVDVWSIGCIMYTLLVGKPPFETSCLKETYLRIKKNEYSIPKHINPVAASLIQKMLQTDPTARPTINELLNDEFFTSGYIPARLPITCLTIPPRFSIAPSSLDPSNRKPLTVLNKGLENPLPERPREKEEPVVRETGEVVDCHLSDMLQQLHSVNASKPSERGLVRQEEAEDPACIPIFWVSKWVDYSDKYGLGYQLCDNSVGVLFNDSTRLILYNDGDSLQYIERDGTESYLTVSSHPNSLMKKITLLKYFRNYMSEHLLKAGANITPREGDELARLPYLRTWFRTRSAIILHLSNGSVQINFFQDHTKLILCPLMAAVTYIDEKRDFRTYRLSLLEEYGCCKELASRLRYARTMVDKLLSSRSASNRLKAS", "experiment": "Inhibition of PLK1 at 1 uM"}, "[25]": {"target": "Serine/threonine-protein kinase Chk2 (Homo sapiens) (UniProt O96017)", "experiment": "Inhibition of CHK2 at 1 uM"}, "[26]": {"target": "Epidermal growth factor receptor (Homo sapiens) (UniProt P00533)", "experiment": "Inhibition of ErbB1 at 1 uM"}, "[27]": {"target": "Proto-oncogene tyrosine-protein kinase Src (Homo sapiens) (UniProt P12931)", "experiment": "Inhibition of SRC at 1 uM"}, "[28]": {"target": "Tyrosine-protein kinase JAK2 (Homo sapiens) (UniProt O60674)", "experiment": "Inhibition of JAK2 at 1 uM"}, "[29]": {"target": "Serine/threonine-protein kinase Chk1 (Homo sapiens) (UniProt O14757)", "experiment": "Inhibition of CHK1 at 1 uM"}, "[30]": {"target": "Aurora kinase A (Homo sapiens) (UniProt O14965)", "experiment": "Inhibition of Aurora A at 1 uM"}}, "data": [{"compound": "CC(=O)N1CCN(C(=O)Cc2ccc(Nc3ncc(F)c(Nc4ccc(C(=O)Nc5ccccc5Cl)cc4)n3)cc2)CC1", "values": [{"measurement": "inhibition", "setting": "[1]", "value": 25, "unit": "%"}, {"measurement": "inhibition", "setting": "[2]", "value": 23, "unit": "%"}, {"measurement": "inhibition", "setting": "[3]", "value": 17, "unit": "%"}, {"measurement": "inhibition", "setting": "[4]", "value": 11, "unit": "%"}, {"measurement": "inhibition", "setting": "[5]", "value": 7, "unit": "%"}, {"measurement": "inhibition", "setting": "[6]", "value": 43, "unit": "%"}, {"measurement": "inhibition", "setting": "[7]", "value": 20, "unit": "%"}, {"measurement": "inhibition", "setting": "[8]", "value": 10, "unit": "%"}, {"measurement": "IC50", "setting": "Aurora kinase B", "value": "> 25", "unit": "µM"}, {"measurement": "inhibition", "setting": "[9]", "value": 28, "unit": "%"}, {"measurement": "inhibition", "setting": "[10]", "value": 15, "unit": "%"}, {"measurement": "inhibition", "setting": "[11]", "value": 11, "unit": "%"}, {"measurement": "inhibition", "setting": "[12]", "value": 91, "unit": "%"}, {"measurement": "inhibition", "setting": "[13]", "value": 18, "unit": "%"}, {"measurement": "inhibition", "setting": "[14]", "value": 15, "unit": "%"}, {"measurement": "inhibition", "setting": "[15]", "value": 13, "unit": "%"}, {"measurement": "inhibition", "setting": "[16]", "value": 7, "unit": "%"}, {"measurement": "inhibition", "setting": "[17]", "value": 4, "unit": "%"}, {"measurement": "inhibition", "setting": "[18]", "value": 21, "unit": "%"}, {"measurement": "inhibition", "setting": "[19]", "value": 5, "unit": "%"}, {"measurement": "inhibition", "setting": "[20]", "value": 29, "unit": "%"}, {"measurement": "inhibition", "setting": "[21]", "value": 23, "unit": "%"}, {"measurement": "inhibition", "setting": "[22]", "value": 2, "unit": "%"}, {"measurement": "inhibition", "setting": "[23]", "value": 79, "unit": "%"}, {"measurement": "inhibition", "setting": "[24]", "value": 3, "unit": "%"}, {"measurement": "inhibition", "setting": "[25]", "value": 12, "unit": "%"}, {"measurement": "inhibition", "setting": "[26]", "value": 5, "unit": "%"}, {"measurement": "inhibition", "setting": "[27]", "value": 30, "unit": "%"}, {"measurement": "inhibition", "setting": "[28]", "value": 78, "unit": "%"}, {"measurement": "inhibition", "setting": "[29]", "value": 14, "unit": "%"}, {"measurement": "inhibition", "setting": "[30]", "value": 103, "unit": "%"}]}]}
